These results are taken from patent US20180369264A1, “COMBINATION OF A CARDIAC STEROID AND AN AKT INHIBITOR FOR THE TREATMENT OF CARDIOVASCULAR DISEASES AND DISORDERS” (YISSUM RESEARCH DEVELOPMENT COMPANY OF THE HEBREW …, priority 2015, published 2018).

Values joined by “and” are separate entries in the source; they are usually repeats but may differ in a detail not shown here. Equal entries are not always repeated. Where two headings read alike, the source gives them in different places.

One data set relates to Akt. The arrangement: scale not given here. Conditions: class symbols, key not given; cited from earlier work.
The test system of data set [1] is wild-type zebrafish larvae heart. The format is in vivo, zebrafish (Danio rerio). Conditions: for effect on force of contraction / effect on heart rate: 1 nM. The procedure: Experiments were performed on wild-type (WT, AB strain) zebrafish (Danio rerio). The fish were maintained in accordance with the principles established by the NIH. […] The fish were kept in swimming medium (E3 medium) in small aquaria at 28° C. and maintained under a 14h: 10h light:dark cycle. The zebrafish larvae were maintained in the presence of 0.1% methylene blue (M9140, Sigma-Aldrich Inc, Israel) at 28° C. All measurements were taken in embryos at 72 hours post fertilization (hpf).
Ouabain, bufalin, digoxin, acetylcholine, carbachol, […] (pp2) and U0126 (1,4-diamino-2,3-dicyano-1,4-bis(2-aminophenylthio)butadiene) were purchased from Sigma-Aldrich Inc., Israel. The compounds were dissolved in egg water (0.3 g Instant Ocean Salt in distilled water) to a final selected concentration, as specified in the following examples. […]
(§1) Filming process Zebrafish larvae heart imaging was performed using an Olympus CKX41 (Japan) […] microscope with ×10 or ×20 magnification, and integrated incandescent illumination. A FastCam imi-tech (Korea) high speed digital camera with 640×480 pixel gray scale image sensor was mounted on the microscope, using ImCam software (IMI Technology, Co. Ltd) for high speed video recording. The larvae were anesthetized by placing them in filming/anesthetizing medium. Each larva in 0.5 ml filming/anesthetizing medium was transferred to a 96-well tissue culture plate at room temperature and sequential images of the heart were obtained, with the larvae positioned on their side, at 80 fps during 10 seconds with a shutter speed of 0.016 seconds.
Physiological parameters of cardiovascular performance, as indicated hereinbelow, were evaluated in the zebrafish larvae. Image analysis applications ImageJ (NIH, USA) were used, allowing the delineation of the endomyocardial border at the end of systole or end of diastole to define the ventricular area. Sequential still frames were analyzed to capture ventricular end-systole and end-diastole images. End Systolic Area (ESA, FIG. 1B) and End Diastolic Area (EDA, FIG. 1C) were used to calculate Fractional Area Change (FAC), according to the equation: FAC=(EDA-ESA)/EDA*100. The Ejection Fraction (EF) was determined by an independent estimate of ventricular volume. This was achieved by placing scan lines across the midventricular short axis (SA) and long axis (LA) at the end of systole (FIG. 1D) and diastole (FIG. 1E). […] EF was then calculated according to the equation: EF=(EDV-ESV)/EDV*100. Heart rate (HR) was measured in beats per minute. Cardiac output (CO) was calculated according to the equation: CO=(EDV-ESV)*HR. A minimum of five sequential pairs of systolic and diastolic cycles were measured and analyzed in 9-12 larvae for each treatment.

Data set [2] has as its system primary adult zebrafish cardiomyocytes. The data set can be described thus: Primary adult zebrafish cardiomyocyte contractility. The format is cell-based. How it is done: Adult (4 to 12-month-old) ventricular myocytes were obtained by enzymatic dissociation (with collagenase II and IV, at 5 mg/ml, each). The zebrafish were stunned by a blow to the head and the brain was pithed. The heart was quickly removed and placed in a small Petri dish containing 10 ml isolation solution: 100 mM NaCl, 10 mM KCl, 1.2 mM KH2PO4, 4 mM MgSO4, 50 mM taurine, 20 mM glucose, and 10 mM Hepes, pH 6.9. The ventricle was cut free from the bulbus and atrium under a binocular. Ventricles from 3 fish were incubated for 45 minutes at 32° C. in a solution containing perfusion buffer (150 mM NaCl, 5.4 mM KCl, 1.5 mM MgSO4, 0.4 mM NaH2PO4, 2 mM CaCl2, 10 mM glucose, and 10 mM Hepes, pH 7.7). Collagenases II and IV (Gibco, NY, USA, 5 mg/ml each) and additional CaCl2 (2.012 mM final concentration) were added. Following Eppendorf centrifugation (1 minute, 250×g at room temperature) the precipitated cells were suspended in 1 ml perfusion buffer for 30 minutes at room temperature before use.
Cells were transferred to a chamber with a quartz base and examined using an inverted epifluorescence microscope (Nikon Diaphot 200, Japan). The myocytes were field-stimulated (0.5 Hz, 70 V, square waves) and contractions were measured using a video motion edge detector (Crescent Electronics, Sandy, Utah, USA) at the rate of 5 Hz. Cardiomyocyte performance was calculated as the percentage of resting cell length. The slopes of contraction and relaxation (+dL/dt and −dL/dt) were calculated from the linear portions of the changes in contractility. 9 cells per each group were measured. Each of the experiments was repeated at least 3 times with identical results.

A further data set concerns ERK. The data set can be described thus: ERK phosphorylation in adult zebrafish heart (Western blot). The format is in vivo. Conditions: adult zebrafish heart, control experiments. How it is done:
Adult zebrafish (˜12-months-old) were transferred to swimming medium containing 1 μM of CS drugs, as specified in the following examples. At various time points (5-30 min), as indicated in the following examples, the zebrafish were transferred to perfusion buffer and the hearts were immediately removed and transferred to RIPA lysis buffer (Sigma-Aldrich), and protease inhibitor cocktail (P8340, Sigma-Aldrich), at a 1:100 dilution). The tissue was homogenized in an ultrasonic homogenizer (Microson, NY, USA) and aliquots of the homogenate were stored at −70° C. until used.
Protein dilution and separation on SDS-PAGE electrophoresis, their transfer to a polyvinylidene fluoride membrane were carried out. […] The membranes were washed with TBS containing 0.1% Tween and exposed to horseradish peroxidase-conjugated secondary goat anti-rabbit IgG antibody (1:50,000). The membranes were stripped prior to their exposure to a different antibody. Detection was carried out with the aid of a Luminata™ Crescendo Western HRP Substrates, according to the manufacturer's instructions.

For data set [3] the following is noted: in vivo; cited from earlier work.
In data set [4] the test system is zebrafish accordion mutant (acc) larvae heart. The data set can be described thus: In-vivo heart contractility measurements in zebrafish acc mutant larvae. The arrangement: species or system zebrafish (Danio rerio). Conditions: 1 nM, 90 minutes. The procedure:
Ouabain, bufalin, digoxin, acetylcholine, carbachol, […] (pp2) and U0126 (1,4-diamino-2,3-dicyano-1,4-bis(2-aminophenylthio)butadiene) were purchased from Sigma-Aldrich Inc., Israel. The compounds were dissolved in egg water (0.3 g Instant Ocean Salt in distilled water) to a final selected concentration, as specified in the following examples. The larvae in 20 μL of E3 medium were transferred to the egg water solution containing one or two of the above specified drugs of choice, and incubated for 60-90 minutes at 28° C.
as §1
Physiological parameters of cardiovascular performance, as indicated hereinbelow, were evaluated in the zebrafish larvae. […] Sequential still frames were analyzed to capture ventricular end-systole and end-diastole images. […] The Ejection Fraction (EF) was determined by an independent estimate of ventricular volume. […] EF was then calculated according to the equation: EF=(EDV-ESV)/EDV*100. Heart rate (HR) was measured in beats per minute. Cardiac output (CO) was calculated according to the equation: CO=(EDV-ESV)*HR. A minimum of five sequential pairs of systolic and diastolic cycles were measured and analyzed in 9-12 larvae for each treatment.

Where [5] appears, read: wt, ERK inhibitor experiment, 0.1 nM Oua, 10 nM PD98059, 20 minutes, 0.5 Hz.

For `CCCCCCCCCCCCCCCCOP(=O)([O-])OCC[N+](C)(C)C` [Miltefosine, hexadecyl 2-(trimethylazaniumyl)ethyl phosphate], the Akt result in the data set with Akt is listed as “✓”.

For the compound `CC(C)(C)n1nc(-c2ccc(Cl)cc2)c2c(N)ncnc21` [PP2], the “effect of inhibitor alone on heart function / basal contractility” value in data set [1] (PP2 50 nM, U0126 1 μM, MK-2206 10 nM for 2 hours) is recorded as “did not affect heart function”. The “effect on CS-induced increase in contractility” value in data set [1] (inhibitor 30 minutes (PP2 50 nM; U0126 1 μM), then CS, measured 90 minutes later) is listed as “completely abolished the CS-induced increase in contractility”.

`COc1cccc(-c2cc(=O)c3ccccc3o2)c1N` [PD98059, 2′-amino-3′-methoxyflavone]: in data set [2] (10 nM PD98059), the “amplitude of cell contraction, inhibitor alone” value is reported as “did not affect the amplitude of cell contraction”; the “contractility and relaxation rise time, inhibitor alone” value was “increased contractility and relaxation rise time”. Further, the “ouabain-induced increases in all contractility parameters in the presence of the inhibitor” value in data set [2] (10 nM PD98059, 0.1 nM ouabain) was “completely prevented”. For the same compound, in data set [2] (setting [5]), the Amplitude is listed as 0.13 ± 0.01, the “Contraction Rate (−dv/dt)” value turned out to be 0.87 ± 0.09 and the “Relaxation Rate (+dv/dt)” value is on record as 0.78 ± 0.14. Moreover, the “effect on CS-induced increase in ERK phosphorylation” value in the data set with ERK is on record as “inhibit the CS-induced increase in ERK phosphorylation”.

For the compound `Cc1ccccc1CN1C(=O)C2=C(CCN(Cc3ccccc3)C2)N2CCN=C12` [TIC10, 2,4,6,7,8,9-hexahydro-4-[(2-methylphenyl)methyl]-7-(phenylmethyl)-imidazo[1,2-a]pyrido[3,4-e]pyrimidin-5(1H)-one], the Akt result in the data set with Akt is “✓”.

`C[C@H]1O[C@@H](O[C@@H]2[C@@H](O)C[C@H](O[C@@H]3[C@@H](O)C[C@@H](O[C@H]4CC[C@@]5(C)[C@H](CC[C@@H]6[C@@H]5C[C@@H](O)[C@]5(C)C(C7=CC(=O)OC7)CC[C@]65O)C4)O[C@@H]3C)O[C@@H]2C)C[C@H](O)[C@H]1O` (stereo partly drawn) [digoxin, 4-[(3 S,5R,8R,9S,10S,12R,13 S, 14S)-3-[(2S,4S,5R,6R)-5-[(2S,4S,5R,6R)-5-[(2S,4S,5R,6R)-4,5-dihydroxy-6-methyl-oxan-2-yl]oxy-4-hydroxy-6-methyl-oxan-2-yl]oxy-4-hydroxy-6-methyl-oxan-2-yl]oxy-12,14-dihydroxy-10,13-dimethyl-1,2,3,4,5,6,7,8,9,11,12,15,16,17-tetradecahydrocyclopenta[a]phenanthren-17-yl]-5H-furan-2-one]: in data set [1], the “effect on force of contraction” value is “increased significantly the force of contraction” and the “effect on heart rate” value is “without affecting heart rate”. For the same compound, in data set [1] (vs 0.1 nM bufalin or ouabain), the “concentration required for a similar effect, relative to bufalin or ouabain” value is reported as “about tenfold”. Also, in data set [3], the “plasma concentration at which significant signs of toxicity are observed” value is 3 nM and the “plasma concentration considered beneficial” value is “about 1 nM”. The “effect on heart contractility” value in data set [4] is listed as “no effect on heart contractility”.

Take `Cc1ccccc1CN1C2=NCCN2C(=O)C2=C1CCN(Cc1ccccc1)C2` [TIC10 Analogue, 2,6,7,8,9,10-hexahydro-10-[(2-methylphenyl)methyl]-7-(phenylmethyl)-imidazo[1,2-a]pyrido[4,3-d]pyrimidin-5(3H)-one]: in the data set with Akt, the Akt result is “✓”.

As to `C[N+](C)(C)CCOC(N)=O` [carbachol], the “reduction in cardiac output (CO)” value in data set [1] (1 μM, 90 minutes, wt larvae) worked out at 10.39±2.2%; in data set [1] (10 μM, 90 minutes, wt larvae) it was 16.92±3%. In addition, the “effect on heart force of contraction and rate” value in data set [1] (1 and 10 μM, 90 minutes, wt larvae) was “decreased the heart force of contraction and rate”.

In the case of `C[C@]12CC[C@H](O)C[C@H]1CC[C@@H]1[C@@H]2CC[C@]2(C)[C@@H](c3ccc(=O)oc3)CC[C@]12O` [bufalin, 5-[(3 S,5R,8R,9S,10S,13R,14S,17R)-3,14-dihydroxy-10,13-dimethyl-1,2,3,4,5,6,7,8,9,11,12,15,16,17-tetradecahydrocyclopenta[a]phenanthren-17-yl]pyran-2-one], in data set [1], the “effect on force of contraction” value is “increased significantly the force of contraction” and the “effect on heart rate” value was “without affecting heart rate”. Moreover, the “concentration producing a significant increase in heart contractility” value in data set [1] (added to larvae swimming medium) is 0.1 nM. Moreover, the “effect on heart contractility” value in data set [4] is given as “no effect on heart contractility”.

On to `CNC[C@H](O)c1ccc(O)c(O)c1` [adrenalin], for which, in data set [1] (zebrafish, in vivo), the “effect on heart contractility and rate” value is “significant increase in heart contractility and rate”; the “effect on heart force of contraction and rate” value was “increase in heart contractility and rate”; the “increase in CO” value is 18.34±1.97% and 30.48±2.67%.

Turning to `C=CCc1ccc(O)c(-c2ccc(O)c(CC=C)c2)c1` [Honokiol, 2-(4-hydroxy-3-prop-2-enylphenyl)-4-prop-2-enylphenol], in the data set with Akt, the Akt entry is “✓”.

`N#CC(=C(N)Sc1ccccc1N)C(C#N)=C(N)Sc1ccccc1N` [U0126, 1,4-diamino-2,3-dicyano-1,4-bis(2-aminophenylthio)butadiene]: in data set [1] (zebrafish, in vivo), the “effect of inhibitor alone on heart function / basal contractility” value is “did not affect basal contractility” and the “effect on CS-induced increase in contractility” value was “prevented the CS-induced increase in contractility”. The “effect on CS-induced increase in ERK phosphorylation” value in the data set with ERK is on record as “inhibit the CS-induced increase in ERK phosphorylation”.
